# Results taken from the supplement of paper PMC8967900.
# Tests used:
# Assay in all cases: selective drug sensitivity score (sDSS, relative to normal bone marrow) (sDSS (score)); higher = more potent and effective on the cell line relative to normal bone marrow cells
# Details in all cases: 72 h
# [1] = system: CCRF-CEM
# [2] = system: PF-382
# [3] = system: MHH-CALL-4
# [4] = system: COG-LL-355h
# [5] = system: KASUMI-2
# [6] = system: ALL-SIL
# [7] = system: NALM-6
# [8] = system: JURKAT
# [9] = system: 697
# [10] = system: CCRF-HSB2
# [11] = system: MOLT-14
# [12] = system: REH
# [13] = system: RCH-ACV
# [14] = system: KARPAS-45
# [15] = system: NALL-1
# [16] = system: KOPN-8
# [17] = system: P12-ICHIKAWA
# [18] = system: MN-60
# [19] = system: COG-LL-319h
# [20] = system: SEM cells
# 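Also: ALL cell lines in 384-well plates, five doses spanning 10,000-fold, each plate scaled between vehicle and 100 µmol/L benzalkonium chloride controls, sDSS an adapted area-under-curve metric.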
compound,measurement,setting,value
CS(=O)(=O)CCNCc1ccc(-c2ccc3ncnc(Nc4ccc(OCc5cccc(F)c5)c(Cl)c4)c3c2)o1 [Lapatinib] (top concentration 1000 nM),selective drug sensitivity score,[1],0
same,selective drug sensitivity score,[2],0
same,selective drug sensitivity score,[3],0
same,selective drug sensitivity score,[4],0
same,selective drug sensitivity score,[5],0
same,selective drug sensitivity score,[6],0
same,selective drug sensitivity score,[7],0
same,selective drug sensitivity score,[8],0
same,selective drug sensitivity score,[9],0
same,selective drug sensitivity score,[10],0
same,selective drug sensitivity score,[11],0
same,selective drug sensitivity score,[12],0
same,selective drug sensitivity score,[13],0
same,selective drug sensitivity score,[14],0
same,selective drug sensitivity score,[15],0
same,selective drug sensitivity score,[16],0
same,selective drug sensitivity score,[17],0
same,selective drug sensitivity score,[18],0
same,selective drug sensitivity score,[19],0
same,selective drug sensitivity score,[20],0
Oc1ccc2c(c1)CC[C@H](c1ccccc1)[C@@H]2c1ccc(OCCN2CCCC2)cc1 [Lasofoxifene] (top concentration 1000 nM),selective drug sensitivity score,[1],-1.08
same,selective drug sensitivity score,[2],-0.98
same,selective drug sensitivity score,[3],-1.28
same,selective drug sensitivity score,[4],-1.28
same,selective drug sensitivity score,[5],-1.28
same,selective drug sensitivity score,[6],-1.28
same,selective drug sensitivity score,[7],-1.28
same,selective drug sensitivity score,[8],-1.28
same,selective drug sensitivity score,[9],-1.28
same,selective drug sensitivity score,[10],-1.28
same,selective drug sensitivity score,[11],-1.28
same,selective drug sensitivity score,[12],-1.28
same,selective drug sensitivity score,[13],-1.28
same,selective drug sensitivity score,[14],-1.28
same,selective drug sensitivity score,[15],-1.28
same,selective drug sensitivity score,[16],-1.28
same,selective drug sensitivity score,[17],-1.28
same,selective drug sensitivity score,[18],-1.28
same,selective drug sensitivity score,[19],2.62
same,selective drug sensitivity score,[20],-1.28
Cc1ccc(F)c(NC(=O)Nc2ccc(-c3cccc4[nH]nc(N)c34)cc2)c1 [Linifanib] (top concentration 1000 nM),selective drug sensitivity score,[1],-1.02
same,selective drug sensitivity score,[2],-1.12
same,selective drug sensitivity score,[3],-1.12
same,selective drug sensitivity score,[4],-1.12
same,selective drug sensitivity score,[5],-1.12
same,selective drug sensitivity score,[6],-1.12
same,selective drug sensitivity score,[7],-1.12
same,selective drug sensitivity score,[8],-1.12
same,selective drug sensitivity score,[9],-1.12
same,selective drug sensitivity score,[10],-1.12
same,selective drug sensitivity score,[11],-1.12
same,selective drug sensitivity score,[12],-1.12
same,selective drug sensitivity score,[13],-1.12
same,selective drug sensitivity score,[14],-1.12
same,selective drug sensitivity score,[15],-1.12
same,selective drug sensitivity score,[16],-1.12
same,selective drug sensitivity score,[17],-1.12
same,selective drug sensitivity score,[18],-1.12
same,selective drug sensitivity score,[19],-1.12
same,selective drug sensitivity score,[20],1.28
Cc1c(F)cc(C(=O)NC2CC2)cc1-c1ccc(C(=O)NCC(C)(C)C)cn1 [Losmapimod] (top concentration 10000 nM),selective drug sensitivity score,[1],-0.18
same,selective drug sensitivity score,[2],0.02
same,selective drug sensitivity score,[3],-0.18
same,selective drug sensitivity score,[4],1.92
same,selective drug sensitivity score,[5],-0.18
same,selective drug sensitivity score,[6],-0.18
same,selective drug sensitivity score,[7],0.82
same,selective drug sensitivity score,[8],-0.18
same,selective drug sensitivity score,[9],2.72
same,selective drug sensitivity score,[10],-0.08
same,selective drug sensitivity score,[11],-0.18
same,selective drug sensitivity score,[12],-0.18
same,selective drug sensitivity score,[13],11.5
same,selective drug sensitivity score,[14],-0.18
same,selective drug sensitivity score,[15],-0.18
same,selective drug sensitivity score,[16],4.42
same,selective drug sensitivity score,[17],-0.18
same,selective drug sensitivity score,[18],-0.18
same,selective drug sensitivity score,[19],-0.18
same,selective drug sensitivity score,[20],-0.18
CNC(=O)c1cccc2cc(Oc3ccnc4cc(OCC5(N)CC5)c(OC)cc34)ccc12 [Lucitanib] (top concentration 10000 nM),selective drug sensitivity score,[1],3.08
same,selective drug sensitivity score,[2],1.38
same,selective drug sensitivity score,[3],-0.62
same,selective drug sensitivity score,[4],-0.62
same,selective drug sensitivity score,[5],3.48
same,selective drug sensitivity score,[6],4.88
same,selective drug sensitivity score,[7],1.58
same,selective drug sensitivity score,[8],2.78
same,selective drug sensitivity score,[9],5.48
same,selective drug sensitivity score,[10],3.88
same,selective drug sensitivity score,[11],2.28
same,selective drug sensitivity score,[12],6.88
same,selective drug sensitivity score,[13],6.38
same,selective drug sensitivity score,[14],3.18
same,selective drug sensitivity score,[15],0.58
same,selective drug sensitivity score,[16],6.38
same,selective drug sensitivity score,[17],1.28
same,selective drug sensitivity score,[18],-0.62
same,selective drug sensitivity score,[19],1.98
same,selective drug sensitivity score,[20],4.98
